Measurements taken from patent US6133266A, “3,4-disubstituted phenylethanolaminotetralincarboxamide derivatives” (Kissei Pharmaceutical Co., Ltd., priority 1996, dated 2000).
Where a name gives a salt, the structure may show the parent alone.

Columns and labels:
β2 -adrenergic receptor = biological target: T1, β2 -adrenergic receptor (Rattus norvegicus, UniProt P10608); assay: Action of drugs on the spontaneous contractions of isolated myometria (isolated rat pregnant uterus); format: cell-based; settings: isolated pregnant SD rat uterus (pregnancy day 21), Magnus method, 37° C.; read-out: EC50, activity to relax 50% of the spontaneous contractions of rat myometrium
T1 construct: longitudinal uterine muscle strips (about 15 mm in length and about 5 mm in width); from tissue; host or cells: longitudinal uterine muscle strips of pregnant SD rat (day 21)
T1 sequence (P10608 whole entry): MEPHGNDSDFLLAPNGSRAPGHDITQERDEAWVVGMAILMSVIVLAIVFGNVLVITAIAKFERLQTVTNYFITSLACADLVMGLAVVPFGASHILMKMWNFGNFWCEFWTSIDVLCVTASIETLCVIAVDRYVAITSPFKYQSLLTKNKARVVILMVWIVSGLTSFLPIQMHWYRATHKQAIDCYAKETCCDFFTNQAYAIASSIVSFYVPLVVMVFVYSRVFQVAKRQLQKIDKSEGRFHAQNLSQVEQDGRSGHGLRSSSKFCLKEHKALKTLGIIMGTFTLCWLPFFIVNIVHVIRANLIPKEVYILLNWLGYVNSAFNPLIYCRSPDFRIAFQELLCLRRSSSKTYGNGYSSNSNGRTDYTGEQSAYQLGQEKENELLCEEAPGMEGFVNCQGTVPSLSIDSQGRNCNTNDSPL
Method: Thus, the compounds of the present invention have markedly potent β2 -adrenergic receptor stimulating effect and therefore are remarkably useful as β2 -adrenergic receptor stimulating agents.
Action of drugs on the spontaneous contractions of isolated myometria
The uterus of a pregnant SD rat (pregnancy day of 21) was isolated and longitudinal uterine muscle strips (about 15 mm in length and about 5 mm in width) free from the basal plate were prepared. The experiment was conducted according to the Magnus method. The preparations were mounted with a tension of 1 g in Locke-Ringer solution maintained at 37° C. and gassed with a mixture of 95% of oxygen and 5% of carbon dioxide. Spontaneous contractions of the myometrium were induced isometrically via a pressure transducer and recorded on a rectigram. The efficacy was evaluated by comparing the total degree of uterine contraction during 5 minutes before the addition of the drug with the total degree of uterine contraction during 5 minutes after the addition of the drug and calculating the 50% inhibitory concentration as EC50.

β1 -adrenergic receptor = assay: Action of drugs on the atrial contractions of isolated atria (isolated rat atrium); format: cell-based; settings: isolated atria of SD male rats, Magnus method, 37° C.
Method: Thus, the compounds of the present invention have markedly weak β1 -adrenergic receptor stimulating effect in comparison with the aforementioned β2 -adrenergic receptor stimulating effect.
Action of drugs on the atrial contractions of isolated atria The atria of SD male rats (350 to 400 g in body weight) were isolated and the experiment was conducted according to the Magnus method. The preparations were mounted with a tension of 1 g in Krebs-Henseleit solution maintained at 37° C. and gassed with a mixture of 95% of oxygen and 5% of carbon dioxide. The atrial contraction was induced isometrically via a pressure transducer and recorded on a rectigram. After addition of the drug, its efficacy was evaluated by calculating EC20 value which is the drug concentration which increases 20 beats per minute of heart rate.

male ICR mice = assay: Acute toxicity; format: in vivo; settings: 5 male ICR mice, intravenously in saline, 20 mg/kg, during 24 hours after the administration
Method: To 5 male ICR mice of 4 weeks age was administered intravenously 2-[(2S)-2-[[(2R)-2-hydroxy-2-(4-hydroxy-3hydroxymethylphenyl)ethyl]amino]- 1,2,3,4-tetrahydronaphthalen-7-yloxy]-N,N-dimethylacetamide 0.5 sulfate in saline at dose of 20 mg/kg.

| SMILES | EC50 (β2 -adrenergic receptor) | EC20 value, activity to increase 20 beats per minute of rat heart rate (β1 -adrenergic receptor) | death of animals (male ICR mice) |
| --- | --- | --- | --- |
| CN(C)C(=O)COc1ccc2c(c1)C[C@@H](NCC(O)c1ccc(O)c(CO)c1)CC2 (mixture of isomers) [Compound 1, 2-[(2S)-2-[[(2RS)-2-Hydroxy-2-(4-hydroxy-3-hydroxymethylphenyl)ethyl]amino]-1,2,3,4-tetrahydronaphthalen-7yloxy]-N,N-dimethylacetamide] | 5.3 nM | 2.5×10^-6 mol concentration | – |
| CN(C)C(=O)COc1ccc2c(c1)C[C@@H](NC[C@H](O)c1ccc(O)c(CO)c1)CC2 [Compound 6, (-)-2-[(2S)-2-[[(2R)-2-Hydroxy-2-(4-hydroxy-3-hydroxymethylphenyl)ethyl]amino]-1,2,3,4-tetrahydronaphthalen-7-yloxy]-N,N-dimethylacetamide] | 2.6 nM | 9.4×10^-7 mol concentration | – |
| CN(C)C(=O)COc1ccc2c(c1)C[C@@H](NC[C@H](O)c1ccc(O)c(CO)c1)CC2 [Compound 19, (-)-2-[(2S)-2-[[(2R)-2-Hydroxy-2-(4-hydroxy-3-hydroxymethylphenyl)ethyl]amino]-1,2,3,4-tetrahydronaphthalen-7-yloxy]-N,N-dimethylacetamide 0.5 sulfate] | – | – | No death of animals was observed |
